Legend:
adrenal glands = assay: Corticosterone synthesis and adrenal gland after three-month treatment; type: in vivo, B6 male mice; details: three months; for cortex layers, most notably the fasciculata zone, of the adrenal glands (histology) / transcripts of Cyp11a, Cyp11b1 and HSD3β genes in adrenal glands (corticosterone synthesis pathway): s.c. 1 mg/kg daily; for transcripts of Cyp11a, Cyp11b1 and HSD3β genes in adrenal glands (corticosterone synthesis pathway): q-RT-PCR; for plasmatic corticosterone level at 10 a.m.: vs Vehicle
Method: (§1) B6 male mice (8-week-old) were daily subjected for three months to either a subcutaneous injection of vehicle (NaCl 0.9%), Dex, CpdX, CpdX(eA), CpdX(eB), CpdX-D3, CpdX-D3(eA) or CpdX-D3(eB) (1 mg/kg body weight, diluted in vehicle).
Following this long-term treatment, blood was collected at 10 a.m. and 6 p.m. by retro-orbital puncture in lithium-heparin coated vials, and the plasmatic level of corticosterone was determined. Adrenal glands were harvested and weighted. RNA transcripts were extracted and transcripts of the Cyp11a, Cyp11b1, Cyp11b2 and HSD3β genes were analyzed by q-RT-PCR. Histological analyses of the adrenal glands were also carried out.

[1] = tested on: HDM-induced asthma-like allergic lung inflammation; assay: House dust mite (HDM)-induced asthma-like allergic lung inflammation; type: in vivo, mice
Method: Glucocorticoids have been (Pearlman et al., 1997. Ann Allergy Asthma Immunol. 78(4):356-62), and are still, widely used in asthma therapy. In order to investigate the possible CpdX anti-inflammatory activity in vivo, mice were sensitized and challenged with either ovalbumin (OVA) or house dust mite (HDM) to induce an asthma-like allergic lung inflammation.
Mice were intranasally sensitized with 1 μg HDM from D0 to D4, and further intranasally sensitized with 10 μg HDM on D14 and D21. Mice were then subdivided into eight groups, and on D29, D30 and D31, each mouse was again intranasally challenged with […]. The first seven groups received respectively 0.5 mg/kg of body weight of Dex, CpdX, CpdX(eA), CpdX(eB), CpdX-D3, CpdX-D3(eA) or CpdX-D3(eB), while the eighth group served as a control.
On D32, the airway responsiveness was invasively determined using a computer-controlled small animal ventilator (FlexVent® system, SCIREQ Technologies). Mice were anesthetized with xylazine (15 mg/kg, i.p.), followed 15 minutes later by an i.p. injection of pentobarbital sodium (54 mg/kg). An 18-gauge metal needle was then inserted into the trachea, each mouse was connected to the FlexVent® ventilator and quasi-sinusoidally ventilated with a tidal volume of 10 mL/kg at a frequency of 150 breaths/minute and a positive end-expiratory pressure of 2 cm H2O, in order to achieve a mean lung volume close to spontaneous breathing. After baseline measurement, mice were challenged for 10 seconds with a saline aerosol and, at 4.5-minute intervals, with 50 mg/mL methacholine. Airway resistance and elastance were expressed as cmH2O.s/mL and cmH2O/mL respectively.
The lung allergic inflammation was assessed by examination of the bronchoalveolar lavage (BAL) fluid from each of these HDM-challenged mice. The total BAL cells, eosinophils, neutrophils, macrophages and lymphocytes were counted. RNA transcripts were extracted from lung samples. RNA transcripts of IL-1β, IL-6, IL-4, IL-5, IL-13, Eotaxin, CCL4, IL-10 and TNFα were analyzed by q-RT-PCR. Lung tissues were harvested and histological (with H&E staining) and immunohistochemical analyses were also carried out (with eosinophil-specific and neutrophil-specific antibodies).

[2] = Blood glucose and intraperitoneal glucose tolerance test (IPGTT) after three-month treatment; type: in vivo, B6 male mice; details: three months; glucose i.p. injection
Method: B6 male mice (8-week-old) were daily subjected for three months to a subcutaneous injection of either vehicle (NaCl 0.9%), Dex, CpdX, CpdX(eA), CpdX(eB), CpdX-D3, CpdX-D3(eA) or CpdX-D3(eB) (1 mg/kg body weight, diluted in vehicle). Mice were over-night-fasted. Mouse blood glucose concentration was measured before (To) and during two hours (T120) after glucose i.p. injection ([…]).

[3] = tested on: thymus, spleen, adrenal gland and kidney; assay: Organ weights (thymus, spleen, adrenal gland, kidney) after three-month treatment; type: in vivo, B6 male mice; details: s.c. 1 mg/kg daily, three months
Method: as §1, with “to” for “to either”, “of either” for “of”, “vehicle). Following these treatments, four organs (thymus, spleen, adrenal gland and kidney) were harvested and weighted.” for “vehicle).”

[4] = tested on: OVA-induced allergic conjunctivitis; assay: Ovalbumin (OVA)-induced allergic conjunctivitis; type: in vivo, Balb/C mice; details: 0.1% instillation D22 to D24, 20 minutes after the last OVA challenge
Method: To investigate the anti-inflammatory effect of CpdX or CpdX-D3 on an allergic conjunctivitis, Balb/C mice were intraperitoneally sensitized with 50 μg OVA with alum on both days D1 and D8, and then challenged from D15 to D21 with 250 μg OVA in 5 μL of sterilized vehicle (0.9% NaCl), which were directly instilled onto the conjunctival sac. From D22 to D24, mice were divided into several groups, and received instillations with either OVA alone, OVA together with 0.1% of either Dex, CpdX, CpdX(eA), CpdX(eB), CpdX-D3, CpdX-D3(eA) or CpdX-D3(eB).
The clinical appearance of mouse eyes was evaluated 20 minutes after the last instillation on D24. Clinical signs (conjunctival hyperemia, lid edema and tearing) were scored to evaluate the occurrence and severity of conjunctivitis as described by Gimenes et al. (2015. Experimental Eye Research 134:24-32). Parameters were graded on a scale ranging from 0 to 3, (0=absence, 1=mild, 2=moderate, and 3=severe symptoms), each animal receiving a total clinical score ranging from 0 to 9. The data were expressed as mean±SEM with at least four mice per treatment.

[5] = tested on: DSS-induced Th17 ulcerative colitis; assay: Dextran sodium sulfate (DSS)-induced ulcerative colitis; type: in vivo, Balb/C mice; details: for pro-inflammatory genes overexpressed in DSS-induced ulcerative colitis (IL-1β, IL-6, IL-17a, IL-17f, TSLP, MMP13): colon, q-RT-PCR, D14; for colonic villus/crypt structure (histology) / mucosal and submucosal cell infiltration (histology): i.p. 1 mg/kg on D11, D12, D13, 3% DSS 13 days
Method: To investigate the anti-inflammatory activity of CpdX and CpdX-D3 on a Th17 ulcerative colitis, Balb/C mice were treated with 3% DSS in drinking water for 13 days, with or without an intraperitoneal administration of either Dex, CpdX, CpdX(eA), CpdX(eB), CpdX-D3, CpdX-D3(eA) or CpdX-D3(eB) (1 mg/kg of body weight) on D11, D12 and D13.
At D14, RNA transcripts were extracted from mouse colons. IL-1β, IL-6, IL-17a, IL-17f, TSLP and MMP13 transcripts were analyzed by q-RT-PCR. Colon samples were also harvested for histological analyses (with H&E staining).

[6] = HDM model, 0.5 mg/kg, D32, vs control group
[7] = HDM model, lung paraffin sections
[8] = methacholine 50 mg/mL, FlexVent
[9] = HDM model, 0.5 mg/kg, D32, vs control group; 0.5 mg/kg

| Compound | cortex layers, most notably the fasciculata zone, of the adrenal glands (histology) (adrenal glands) | transcripts of Cyp11a, Cyp11b1 and HSD3β genes in adrenal glands (corticosterone synthesis pathway) (adrenal glands) | plasmatic corticosterone level at 10 a.m. (adrenal glands) | number of neutrophils and macrophages in BAL ([1]; HDM model, 0.5 mg/kg, D32) | total number of BAL cells, eosinophils and lymphocytes [1, 6] | eosinophils in lung (immunohistochemistry, eosinophil-specific antibodies) ([1]; HDM model, data not shown) | lung expression of IL-10 and TNFα ([1]; HDM model, data not shown) | neutrophils in lung (immunohistochemistry, neutrophil-specific antibody) ([1]; HDM model, data not shown) | peribronchiolar and perivascular inflammatory cell infiltration (histology) [1, 7] | lung expression of pro-inflammatory genes (IL-1β, IL-6, IL-4, IL-5, IL-13, Eotaxin, CCL4) ([1]; HDM model, q-RT-PCR) | HDM-induced airway hyperresponsiveness (AHR), airway resistance and elastance [1, 8] | blood glucose level during two-hour IPGTT [2] | thymus apoptosis (thymus weight) [3] | clinical signs of allergic conjunctivitis (conjunctival hyperemia, lid edema and tearing) [4] | pro-inflammatory genes overexpressed in DSS-induced ulcerative colitis (IL-1β, IL-6, IL-17a, IL-17f, TSLP, MMP13) [5] | colonic villus/crypt structure (histology) [5] | mucosal and submucosal cell infiltration (histology) [5] | total number of BAL cells, eosinophils and lymphocytes [1, 9] |
| --- | --- | --- | --- | --- | --- | --- | --- | --- | --- | --- | --- | --- | --- | --- | --- | --- | --- | --- |
| [2H]C([2H])([2H])Oc1ccc(F)cc1C(C)(C)CC(O)(CNc1ccc2c(c1)COC2=O)C(F)(F)F (racemic) [CpdX-D3, 5-{4-[2-(methoxy-D3)-5-fluorophenyl]-2-hydroxy-4-methyl-2-(trifluoromethyl)pentylamino}isobenzofuran-1(3H)-one] | markedly increased | increased | much higher | No significant change | significantly decreased | decreased | not affected | no significant change | strongly decreased | significantly and similarly decreased | similarly reduced | no significant difference | did not result in any significant thymus apoptosis | considerably reduced | similarly repressed | almost reestablished | significantly decreased | – |
| COc1ccc(F)cc1C(C)(C)CC(O)(CNc1ccc2c(c1)COC2=O)C(F)(F)F (racemic) [CpdX, 5-[4-(5-fluoro-2-methoxyphenyl)-2-hydroxy-4-methyl-2-(trifluoromethyl)pentylamino]-isobenzofuran-1(3H)-one] | markedly increased | increased | much higher | No significant change | significantly decreased | decreased | not affected | no significant change | strongly decreased | significantly and similarly decreased | similarly reduced | no significant difference | did not result in any significant thymus apoptosis | considerably reduced | similarly repressed | almost reestablished | significantly decreased | – |
| [2H]C([2H])([2H])Oc1ccc(F)cc1C(C)(C)CC(O)(CNc1ccc2c(c1)COC2=O)C(F)(F)F (single isomer, unassigned; enantiomer a) [CpdX-D3(eA), 5-{4-[2-(methoxy-D3)-5-fluorophenyl]-2-hydroxy-4-methyl-2-(trifluoromethyl)pentylamino}isobenzofuran-1(3H)-one enantiomer A] | markedly increased | increased | much higher | – | – | – | – | – | decreased | efficiently decreased | – | no significant difference | did not result in any significant thymus apoptosis | considerably reduced | similarly repressed | almost reestablished | significantly decreased | efficiently decreased |
| COc1ccc(F)cc1C(C)(C)CC(O)(CNc1ccc2c(c1)COC2=O)C(F)(F)F (single isomer, unassigned; enantiomer a) [CpdX(eA), 5-[4-(5-fluoro-2-methoxyphenyl)-2-hydroxy-4-methyl-2-(trifluoromethyl)-pentylamino]isobenzofuran-1(3H)-one enantiomer A] | markedly increased | increased | much higher | – | – | – | – | – | decreased | efficiently decreased | reduced | no significant difference | did not result in any significant thymus apoptosis | considerably reduced | similarly repressed | almost reestablished | significantly decreased | efficiently decreased |

— patent US11179363B2, “Non-steroidal selective glucocorticoid receptor agonistic modulators (SEGRAMs) and uses thereof” (ASSOCIATION POUR LA RECHERCHE À L'IGBMC (ARI), priority 2017, dated 2021)
